# From patent US9827224B2, “Methods and compositions for ameliorating pancreatic cancer” (University of South Alabama, priority 2010, dated 2017)
# Tests used:
# Panc1 and MiaPaCa cells [1] = experiment: Cell viability assay (Vybrant MTT cell proliferation assay), results stated for both cell lines together; assay type: cell-based, Human; conditions: for effect on CXCL12-induced chemo-resistance (gemcitabine): pre-treatment 1 h (AMD3100 5 μg/mL, LY294002 20 μM, PD98059 25 μM), then gemcitabine + CXCL12
# Protocol: (§1) After 72 h of treatment, cell growth was determined by using Vybrant MIT cell proliferation assay. Growth was calculated as percent (%)=[{(A/B)−1}×100], where A and B are the absorbance of treatment and control cells, respectively. To examine the effect of CXCR4 targeting, cells were pre-incubated with small molecule CXCR4 antagonist, AMD3100 (5 μg/mL), for 1 h. To delineate the role of Akt and ERK pathways, cells were pretreated for 1 h with LY294002 (20 μM) and PD98059 (25 μM), respectively.
# ERK = experiment: Western blot of ERK activation (total and phospho-forms) in Panc1 and MiaPaCa cells; assay type: cell-based, Human; conditions: for effect on CXCL12-induced activation of ERK pathway: pre-treatment 1 h (AMD3100, LY294002 20 μM, PD98059 25 μM), 15 min post-CXCL12, Panc1 and MiaPaCa
# Protocol: (§2) Cells were processed for protein extraction and western blotting using standard procedures. Briefly, cells were washed twice with PBS and scraped into NP-40 lysis buffer containing protease and phosphotase inhibitors. Cell lysates were passed through a needle syringe to facilitate the disruption of the cell membranes and were centrifuged at 14,000 rpm for 20 min at 4° C., and supematants were collected. Proteins (10-50 μg) were resolved by electrophoresis on 10% SDS-PAGE, transferred onto polyvinylidene difluoride (PVDF) membrane and subjected to standard immunodetection procedure using specific antibodies: AKT, pAKT ERK1/2, pERK1/2, Bcl-2, Bcl-xL, FAk, pFAk, Survivin, β-catenin and BAD (1:1000), pBAD (1:500), Notch-1 (1:200) and β-actin (1:20000). All secondary antibodies were used at 1:2500 dilutions. Blots were processed with ECL Plus Western Blotting detection kit and the signal detected using an LAS-3000 image analyzer (Fuji Photo Film Co., Tokyo, Japan).
# Panc1 cells = experiment: Cell viability assay (MTT), gemcitabine cytotoxicity; assay type: cell-based, Human; conditions: 5.0 μM gemcitabine, 72 h, serum-containing media, compared to untreated cells
# Protocol: as §1
# MiaPaCa cells = experiment: as above; assay type: cell-based, Human; conditions: 5.0 μM gemcitabine, 72 h, serum-containing media, compared to untreated cells
# Protocol: as §1
# Panc1 and MiaPaCa cells [2] = experiment: DNA fragmentation assay; assay type: cell-based, Human; conditions: gemcitabine 5 and 10 μM + CXCL12 100 ng/mL, 48 h, compared to gemcitabine alone
# Protocol: Cells were washed twice with phosphate buffer saline (PBS) and DNA was extracted using DNAzol reagent. 2 μg of isolated DNA was resolved on 1.0% agarose gel containing ethidium-bromide (EtBr) and observed under a LAS-3000 image analyzer (Fuji Photo Film Co.).
# BAD = experiment: Western blot of BAD phosphorylation in Panc1 and MiaPaCa cells; assay type: cell-based, Human; conditions: CXCL12-treated Panc1 and MiaPaCa
# Protocol: as §2
# [3] = tested on: Bcl-2, Bcl-xL, Notch-1 and survivin; experiment: Western blot of survival protein expression in pancreatic cancer cells; assay type: cell-based, Human; conditions: CXCL12-treated pancreatic cancer cells
# Protocol: as §2
# Akt = experiment: Western blot of Akt activation (total and phospho-forms) in Panc1 and MiaPaCa cells; assay type: cell-based, Human
# Protocol: as §2
# SHH = experiment: CXCL12-induced sonic hedgehog (SHH) expression by Q-RT-PCR and Western blot; assay type: cell-based, Human; conditions: CXCL12, 0-48 hours, Panc1 and MiaPaCa
# Protocol: Panc1 and MiaPaCa cells were treated with CXCL12 and expression of SHH was measured by Q-RT-PCR and Western blot analysis.
# Q-RT-PCR: Pancreatic cancer cells (Panc1 and MiaPaCa) were treated with CXCL12 for different time point (0, 4, 8, 24, 48 hours) for Q-RT-PCR analysis. To confirm the induced expression of sonic hegedehog (SHH), reverse transcriptase based-PCR (RT-PCR) analysis was performed, using SHH-specific primers. Briefly, cDNA was synthesized from 5 μg total RNA using SuperScript™ II Reverse Transcriptase (Invitrogen) and oligo(dT) primer. Two micro liter of first strand cDNA (1:10 dilution) was amplified using the SHH specific and GAPDH specific primers control. Amplified products were resolved through a 1.5% agarose gel containing ethidium bromide and analyzed using an Alpha Imager gel documentation system (Alphalnnotech, San Leandro, Calif.).
# Immunoblot analyses: NP-40 lysis buffer containing protease and phosphatase inhibitors (Roche Diagnostics. 50 μg protein was resolved by SDS-PAGE (8-12%). The primary antibodies were: anti-sonic hedgehog (SHH, 1:2000, rabbit monoclonal, Millipore. Secondary antibody (Santa Cruz Biotechnology) was horseradish peroxidase (HRP)-conjugated and was used a 1:2000 dilution. Bound immunocomplexes were detected using ECL Plus chemiluminescent detection reagent (GE Healthcare, Piscataway, N.J.).
# NF-κB = NF-κB transcriptional activity assay (luciferase reporter); assay type: cell-based, Human; conditions: 24 h
# Protocol: To measure the LEF/TCF and NF-κB transcriptional activity, pancreatic cancer cells (1×10^5) were seeded in 12-well plates. After 24 h incubation, cells were transiently transfected with the luciferase promoter-reporter constructs (TOP flash, FOPflash or pGL4.32[luc2P/NF-kB-RE/Hygro]. TOPflash reporter plasmid contains three copies of the Tcf/Lef sites upstream of a thymidine kinase (TK) promoter and the Firefly luciferase gene, while in FOPflash, Tcf/Lef sites are mutated and therefore it serves as a control for measuring nonspecific activation of the reporter. Cells were also co-transfected with a reporter plasmid, containing Renilla reniformis luciferase gene downstream of the TK promoter, to control for the transfection efficiency. All transfections were performed using FuGene as a transfection reagent according to the manufacturers' recommendations. Cells were treated with CXCL12 (100 ng) 24 h post TOPflash/FOPflash or pGLA.32[luc2P/NF-kB-RE/Hygro] transfection, and after the next 24 h, total protein was isolated in passive lysis buffer. Luciferase activity was measured using the Dual Luciferase Assay System. All experiments were done in triplicate and relative luciferase activity reported as the fold induction after normalization for transfection efficiency.
# activated caspases = experiment: Measurement of apoptosis in situ (CaspACE FITC-VAD-FMK); assay type: cell-based, Human; conditions: gemcitabine 5 μM + CXCL12 100 ng/mL, compared to gemcitabine alone
# Protocol: Apoptosis was detected by staining the cells with CaspACE FITC-VAD-FMK solution in PBS for 2 h at 37° C. CaspACE™ FITC-VAD-FMK In Situ Marker is a fluorescent analog of the pan-caspase inhibitor Z-VAD-FMK (carbobenzoxy-valyl-alanylaspartyl-[O-methyl]-fluoromethylketone), which irreversibly binds to activated caspases and is a surrogate for caspase activity in situ. Following staining with CaspACE FITC-V AD-FMK, cells were fixed with 4% paraformaldehydede at room temperature and washed with PBS. The bound fluorescent marker was detected under a Nikon Eclipse TE2000-U fluorescent microscope (Nikon Instruments Inc, Melville, N.Y.).
# FAK = experiment: Western blot of FAK activation in Panc1 and MiaPaCa cells; assay type: cell-based, Human; conditions: CXCL12 100 ng/mL, 5-30 min
# Protocol: as §2
# [4] = human volunteers, intra-venous injection; cited from earlier work
# [5] = CXCL12 100 ng/mL, 5-30 min, Panc1 and MiaPaCa
compound,measurement,setting,value
"COc1cccc(-c2cc(=O)c3ccccc3o2)c1N [PD98059, reference compound]",effect on CXCL12-induced chemo-resistance (gemcitabine),Panc1 and MiaPaCa cells [1],significant negative impact
same,effect on CXCL12-induced activation of ERK pathway,ERK,specifically inhibited
Nc1ccn([C@@H]2O[C@H](CO)[C@@H](O)C2(F)F)c(=O)n1 [gemcitabine],gemcitabine cytotoxicity,Panc1 cells,52.3%
same,gemcitabine cytotoxicity,MiaPaCa cells,50.7%
"CXCL12: Recombinant human CXCL12, a ligand for CXCR4",DNA fragmentation,Panc1 and MiaPaCa cells [2],reduced DNA fragmentation
same,resistance to gemcitabine-cytotoxicity,"Panc1 and MiaPaCa cells [1]; CXCL12 100 ng/mL, gemcitabine 0-10 μM, both cell lines, p<0.05",induced significant resistance
same,induction of growth,"Panc1 and MiaPaCa cells [1]; CXCL12 100 ng/ml, absence of serum growth factors, range over MiaPaCa and Panc1",29-33%
same,increase of growth,"Panc1 and MiaPaCa cells [1]; CXCL12 100 ng/ml, presence of serum growth factors, range over MiaPaCa and Panc1",11-13%
same,level of phospho-BAD,BAD,increased level of phospho-BAD
same,"expression of Bcl-2, Bcl-xL, Notch-1 and survivin proteins",[3],significantly induced
same,activation of Akt (phospho-form),Akt; [5],significant activation
same,expression of SHH,SHH,induced expression of SHH
same,induction of transcriptional activity of NF-κB responsive promoter,"NF-κB; MiaPaCa, CXCL12-treated",2.26 fold
same,induction of transcriptional activity of NF-κB responsive promoter,"NF-κB; Panc1, CXCL12-treated",2.98 fold
same,activation of ERK (phospho-form),ERK; [5],significant activation
same,activity of caspases,activated caspases,enhanced activity of caspases
same,activation of FAK (phospho-form),FAK,significant activation
"c1cc(CN2CCCNCCNCCCNCC2)ccc1CN1CCCNCCNCCCNCC1 [AMD3100, Plerixafor, reference compound]",side effects,[4],minimal side effects
same,effect on CXCL12-induced chemo-resistance (gemcitabine),Panc1 and MiaPaCa cells [1],abolished
same,effect on CXCL12-induced growth promotion,"Panc1 and MiaPaCa cells [1]; pre-treatment 1 h, AMD3100 5 μg/mL, then CXCL12",abolished
same,effect on CXCL12-induced activation of Akt pathway,"Akt; pre-treatment 1 h (AMD3100 5 g/mL, LY294002 20 μM, PD98059 25 μM), 15 min post-CXCL12, Panc1 and MiaPaCa",inhibited
same,effect on CXCL12-induced activation of ERK pathway,ERK,inhibited
